From patent US20020111336A1, “Topical composition” (priority 2000, published 2002)

Test: Storage stability of the gel formulation containing calcipotriol and betamethasone dipropionate
Assay type: physicochemical
Conditions: gel formulation of Example 1; for BDP Kvant.: content of BDP; for Calcipotri. Kvant.: content of calcipotriol, in µg/g
Experimental: To produce 1 kg of gel formulation, 30 g of hydrogenated castor oil was melted together with 749 g of heptamethylnonane at 85-90° C. and cooled with homogenisation to about 60° C. The mixture was then cooled to 25-30° C. with stirring. 643 mg of betamethasone dipropionate was suspended in 50 g of heptamethylnonane and added to the homogenised gel base. 52.2 mg of calcipotriol hydrate or 50 mg of calcipotriol was dissolved in 170 g polyoxypropylene-15-stearyl ether and added to the mixture of the other ingredients, and the formulation was homogenised to ensure a homogenous distribution of the active components. The resulting gel formulation was stable when stored at 40° C. for 3 months, indicating a shelf life of at least 2 years at room temperature.

% FOS (40° C. 1 month)	BDP Kvant. (40° C. 1 month)	% FOS (40° C. 3 months)	BDP Kvant. (40° C. 3 months)	% FOS (Start 5°C./1 month)	% Epi (40° C. 1 month)	Calcipotri. Kvant. (40° C. 1 month)	% Epi (40° C. 3 months)	Calcipotri. Kvant. (40° C. 3 months)	% Epi (Start 5°C./1 month)	Structure (SMILES)
0.91%	0.634 mg/g	1.02%	0.642 mg/g	0.23%						CCC(=O)OCC(=O)[C@@]1(OC(=O)CC)[C@@H](C)C[C@H]2[C@@H]3CCC4=CC(=O)C=C[C@]4(C)[C@@]3(F)[C@@H](O)C[C@@]21C [BDP, betamethasone dipropionate]
1.52%		1.33%		1.59%	0.66%	50.16	0.8%	50.0	0.62%	C=C1/C(=C\C=C2/CCC[C@]3(C)[C@@H]([C@H](C)/C=C/[C@@H](O)C4CC4)CC[C@@H]23)C[C@@H](O)C[C@@H]1O [Calcipotri., calcipotriol]
